Reference: patent US20240090503A1, “FUNGICIDAL OXADIAZOLES AND THEIR MIXTURES” (FMC CORPORATION, priority 2020, published 2024)
Marks after values point to notes of the source that are not given here.

What was measured:
Type in all cases: in vivo
[1] = tested on: Phakopsora pachyrhizi (the causal agent of Asian soybean rust); assay: Test A: preventive spray on soybean seedlings, Asian soybean rust, visual disease rating; details: soybean seedlings
In short: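 Compound in acetone/water (50/50) with 250 ppm PEG400 sprayed to run-off on soybean seedlings; inoculated next day with Phakopsora pachyrhizi spores. Held 24 h at 22° C in saturated atmosphere, then 8 days in a 22° C growth chamber before visual rating as % disease control relative to controls.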

[2] = tested on: Zymoseptoria tritici (the causal agent of wheat leaf blotch); assay: Test B: preventive spray on wheat seedlings, wheat leaf blotch, visual disease rating; details: wheat seedlings
In short: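 This is a preventive test: spray application preceded Zymoseptoria tritici spore inoculation by one day. Test suspensions were in acetone/water with 250 ppm PEG400 surfactant, at the listed ppm rate. After 48 h saturated humidity at 24° C and 17 days at 20° C, visual ratings scored control from 0 to 100%.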

[3] = tested on: Puccinia recondita f. sp. tritici (the causal agent of wheat leaf rust); assay: Test C: preventive spray on wheat seedlings, wheat leaf rust, visual disease rating; details: wheat seedlings
In short: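 Wheat seedlings sprayed to run-off with compound in acetone/water (50/50) with 250 ppm PEG400, then inoculated with spores the following day. After 24 h saturated humidity at 20° C. and 6 days in growth chamber at 20° C., disease rated visually as % control relative to untreated controls.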

[4] = test suspension 10 ppm, 100 = 100% disease control, 0 = no control
[5] = Zymoseptoria tritici, 456 h, 250 ppm test suspension, 100 = 100% disease control
[6] = 10 ppm test suspension, 100 = 100% disease control, 0 = no control
[7] = 250 ppm test suspension, 100 = 100% disease control
[8] = 250 ppm test suspension, 100 = 100% disease control, 0 = no control

Structure (SMILES): COCCNC(=O)c1csc(Cc2ccc(-c3noc(C(F)(F)F)n3)cc2)c1 [compound 287]
- Test A disease control rating [1, 4]: 100%
- Test B disease control rating ([2]; test suspension 250 ppm): 98* %
- Test C disease control rating ([3]; test suspension 10 ppm): 100%

Structure (SMILES): O=C(NCC(F)(F)F)c1csc(Cc2ccc(-c3noc(C(F)(F)F)n3)cc2)n1 [Compound 463, N-(2,2,2-trifluoroethyl)-2-[[4-[5-(trifluoromethyl)-1,2,4-oxadiazol-3-yl]phenyl]methyl]-4-thiazolecarboxamide]
- pest or weed control at 10 ppm ([1]; Phakopsora pachyrhizi, 216 h, 10 ppm test suspension, 100 = 100% disease control, 0 = no control): 100%
- pest or weed control at 250 ppm [2, 5]: 65%
- pest or weed control at 10 ppm ([3]; Puccinia recondita, 168 h, 10 ppm test suspension, 100 = 100% disease control, 0 = no control): 100%

Structure (SMILES): FC(F)(F)c1nc(-c2ccc(Cc3ccccc3)cc2)no1 [compound 451]
- Test A disease control rating [1, 6]: 99%
- Test B disease control rating [2, 7]: 8* %
- Test C disease control rating [3, 6]: 0%

Structure (SMILES): O=S1(=O)CCCN1Cc1ccc(-c2noc(C(F)(F)F)n2)s1 [compound 324]
- Test A disease control rating ([1]; test suspension 250 ppm): 100%
- Test B disease control rating ([2]; test suspension 250 ppm): 80* %
- Test C disease control rating ([3]; test suspension 250 ppm): 100%

Structure (SMILES): N#Cc1nn(Cc2ccc(-c3noc(C(F)(F)F)n3)s2)cc1Br [compound 76]
- Test A disease control rating ([1]; test suspension 270 ppm): 100%
- Test B disease control rating ([2]; test suspension 270 ppm): 41%
- Test C disease control rating ([3]; test suspension 270 ppm): 99%

Structure (SMILES): Cn1c(C2CC2)nn(Cc2ccc(-c3noc(C(F)(F)F)n3)cc2)c1=O [compound 236]
- Test A disease control rating ([1]; test suspension 250 ppm): 100%
- Test B disease control rating ([2]; test suspension 250 ppm): 83%
- Test C disease control rating ([3]; test suspension 250 ppm): 100%

Structure (SMILES): Fc1cccc2nn(Cc3ccc(-c4noc(C(F)(F)F)n4)cc3)cc12 [compound 130]
- Test A disease control rating ([1]; test suspension 260 ppm): 100%
- Test B disease control rating ([2]; test suspension 260 ppm): 89%
- Test C disease control rating ([3]; test suspension 260 ppm): 100%

Structure (SMILES): O=C(NCCC(F)(F)F)c1csc(Cc2ccc(-c3noc(C(F)(F)F)n3)cc2)n1 [compound 397]
- Test A disease control rating [1, 6]: 100%
- Test B disease control rating [2, 7]: 82* %
- Test C disease control rating [3, 6]: 98%

Structure (SMILES): CCOC(=O)c1cnn(C(C)c2ccc(-c3noc(C(F)(F)F)n3)cc2)c1 (stereo not drawn) [Compound 2, ethyl 1-[1-[4-[5-(trifluoromethyl)-1,2,4-oxadiazol-3-yl]phenyl]ethyl]-1H-pyrazole-4-carboxylate]
- pest or weed control at 10 µg/mL ([1]; Phakopsora pachyrhizi, 216 h, test suspension 10 ppm, 100 = 100% disease control, 0 = no control, read-out: Test A disease control rating): 100%
- pest or weed control at 100 µg/mL ([2]; Zymoseptoria tritici, 456 h, test suspension 100 ppm (** next to rating), read-out: Test B disease control rating): 98%
- pest or weed control at 10 µg/mL ([3]; Puccinia recondita, 168 h, test suspension 10 ppm, read-out: Test C disease control rating): 99%

Structure (SMILES): O=C(NCC(F)(F)F)c1ccc(Cc2ccc(-c3noc(C(F)(F)F)n3)cc2)cc1 [compound 281]
- Test A disease control rating [1, 4]: 100%
- Test B disease control rating ([2]; test suspension 250 ppm): 34* %
- Test C disease control rating ([3]; test suspension 10 ppm): 95%

Structure (SMILES): FC(F)(F)c1nc(-c2ccc(OCc3cccnc3)cc2)no1 [Compound 353]
- Test A disease control rating [1, 4]: 0%
- Test B disease control rating ([2]; test suspension 250 ppm): 73* %
- Test C disease control rating ([3]; test suspension 10 ppm): 0%

Structure (SMILES): COCCNC(=O)c1cccc(Cc2ccc(-c3noc(C(F)(F)F)n3)cc2)c1 [compound 284]
- Test A disease control rating [1, 4]: 100%
- Test B disease control rating ([2]; test suspension 250 ppm): 91* %
- Test C disease control rating ([3]; test suspension 10 ppm): 100%

Structure (SMILES): O=C(NCCCC(F)(F)F)c1coc(Cc2ccc(-c3noc(C(F)(F)F)n3)cc2)n1 [compound 398]
- Test A disease control rating [1, 6]: 100%
- Test B disease control rating [2, 7]: 80* %
- Test C disease control rating [3, 6]: 97%

Structure (SMILES): COCCOC(=O)c1cnn(Cc2ccc(-c3noc(C(F)(F)F)n3)cc2)c1 [compound 59]
- Test A disease control rating [1, 4]: 100%
- Test B disease control rating ([2]; test suspension 100 ppm (** next to rating)): 58** %
- Test C disease control rating ([3]; test suspension 10 ppm): 100%

Structure (SMILES): FC(F)(F)c1nc(-c2ccc(Cn3cc(Br)cn3)s2)no1 [Compound 71, 3-[5-[(4-bromo-1H-pyrazol-1-yl)methyl]-2-thienyl]-5-(trifluoromethyl)-1,2,4-oxadiazole]
- pest or weed control at 250 µg/mL ([1]; Phakopsora pachyrhizi, 216 h, test suspension 250 ppm): 100%
- pest or weed control at 250 µg/mL ([2]; Zymoseptoria tritici, 456 h, test suspension 250 ppm): 36%
- pest or weed control at 250 µg/mL ([3]; Puccinia recondita, 168 h, test suspension 250 ppm): 100%

Structure (SMILES): CCOC(=O)c1nn(Cc2ccc(-c3noc(C(F)(F)F)n3)cc2)nc1Br [compound 84]
- Test A disease control rating ([1]; test suspension 250 ppm): 100%
- Test B disease control rating ([2]; test suspension 250 ppm): 66%
- Test C disease control rating ([3]; test suspension 250 ppm): 100%

Structure (SMILES): N#CCNC(=O)c1coc(Cc2ccc(-c3noc(C(F)(F)F)n3)cc2)c1 [compound 294]
- Test A disease control rating [1, 4]: 100%
- Test B disease control rating ([2]; test suspension 250 ppm): 50* %
- Test C disease control rating ([3]; test suspension 10 ppm): 79%

Structure (SMILES): Cc1noc(C)c1COc1ccc(-c2noc(C(F)(F)F)n2)cc1 [compound 338]
- Test A disease control rating [1, 4]: 99%
- Test B disease control rating ([2]; test suspension 250 ppm): 10* %
- Test C disease control rating ([3]; test suspension 10 ppm): 0%

Structure (SMILES): FC(F)(F)c1nc(-c2ccc(OCc3cn4cccnc4n3)cc2)no1 [compound 319]
- Test A disease control rating [1, 4]: 97%
- Test B disease control rating ([2]; test suspension 250 ppm): 33* %
- Test C disease control rating ([3]; test suspension 10 ppm): 0%

Structure (SMILES): OC(c1ccc(F)cc1)c1ccc(-c2noc(C(F)(F)F)n2)cc1 (stereo not drawn) [compound 500]
- Test A disease control rating [1, 8]: 100%
- Test B disease control rating [2, 7]: 5* %
- Test C disease control rating [3, 8]: 100%

Structure (SMILES): O=C(NCC1CC1(F)F)c1coc(Cc2ccc(-c3noc(C(F)(F)F)n3)cc2)n1 (stereo not drawn) [compound 226]
- Test A disease control rating [1, 4]: 100%
- Test B disease control rating ([2]; test suspension 250 ppm): 94* %
- Test C disease control rating ([3]; test suspension 10 ppm): 100%

Structure (SMILES): N#CC1(NC(=O)c2coc(Cc3ccc(-c4noc(C(F)(F)F)n4)cc3)n2)CC1 [compound 231]
- Test A disease control rating [1, 4]: 100%
- Test B disease control rating ([2]; test suspension 250 ppm): 95* %
- Test C disease control rating ([3]; test suspension 10 ppm): 97%

Structure (SMILES): O=C(NCC1CC1)c1csc(Cc2ccc(-c3noc(C(F)(F)F)n3)cc2)c1 [compound 290]
- Test A disease control rating [1, 4]: 100%
- Test B disease control rating ([2]; test suspension 250 ppm): 53* %
- Test C disease control rating ([3]; test suspension 10 ppm): 100%

Structure (SMILES): O=C(NCC(F)(F)F)c1coc(COc2ccc(-c3noc(C(F)(F)F)n3)cc2)n1 [compound 465]
- Test A disease control rating [1, 6]: 100%
- Test B disease control rating [2, 7]: 0* %
- Test C disease control rating [3, 6]: 80%

Structure (SMILES): O=S1(=O)CCCN1Cc1ccc(-c2noc(C(F)(F)F)n2)cc1 [compound 322]
- Test A disease control rating ([1]; test suspension 250 ppm): 100%
- Test B disease control rating ([2]; test suspension 250 ppm): 95* %
- Test C disease control rating ([3]; test suspension 250 ppm): 100%

Structure (SMILES): Cn1ccc(CNC(=O)c2coc(Cc3ccc(-c4noc(C(F)(F)F)n4)cc3)n2)n1 [compound 265]
- Test A disease control rating [1, 4]: 100%
- Test B disease control rating ([2]; test suspension 250 ppm): 93* %
- Test C disease control rating ([3]; test suspension 10 ppm): 100%

Structure (SMILES): COCC(COC)NC(=O)c1csc(Cc2ccc(-c3noc(C(F)(F)F)n3)cc2)n1 [compound 489]
- Test A disease control rating [1, 6]: 100%
- Test B disease control rating [2, 7]: 92* %
- Test C disease control rating [3, 6]: 99%

Structure (SMILES): O=C(NC1CCOC1=O)c1coc(Cc2ccc(-c3noc(C(F)(F)F)n3)cc2)n1 (stereo not drawn) [compound 332]
- Test A disease control rating [1, 4]: 100%
- Test B disease control rating ([2]; test suspension 250 ppm): 99* %
- Test C disease control rating ([3]; test suspension 10 ppm): 99%

Structure (SMILES): FC(F)(F)c1nc(-c2ccc(Cn3cc(Br)c(-c4ccccc4Cl)n3)cc2)no1 [compound 146]
- Test A disease control rating ([1]; test suspension 250 ppm): 100%
- Test B disease control rating ([2]; test suspension 250 ppm): 0%
- Test C disease control rating ([3]; test suspension 250 ppm): 0%

Structure (SMILES): Cc1ccccc1C(O)c1ccc(-c2noc(C(F)(F)F)n2)cc1 (stereo not drawn) [Compound 497]
- Test A disease control rating [1, 6]: 100%
- Test B disease control rating [2, 7]: 5* %
- Test C disease control rating [3, 6]: 0%

Structure (SMILES): O=C(O)c1coc(Cc2ccc(-c3noc(C(F)(F)F)n3)cc2)n1 [compound 253]
- Test A disease control rating [1, 4]: 98%
- Test B disease control rating ([2]; test suspension 250 ppm): 46* %
- Test C disease control rating ([3]; test suspension 10 ppm): 74%

Structure (SMILES): CON=Cc1cnn(Cc2ccc(-c3noc(C(F)(F)F)n3)cc2)c1 [compound 25]
- Test A disease control rating ([1]; test suspension 250 ppm): 100%
- Test B disease control rating ([2]; test suspension 250 ppm): 86* %
- Test C disease control rating ([3]; test suspension 250 ppm): 100%

Structure (SMILES): O=C(O)CON=Cc1cnn(Cc2ccc(-c3noc(C(F)(F)F)n3)cc2)c1 [compound 26]
- Test A disease control rating ([1]; test suspension 250 ppm): 100%
- Test B disease control rating ([2]; test suspension 250 ppm): 46* %
- Test C disease control rating ([3]; test suspension 250 ppm): 100%

Structure (SMILES): COC(=O)c1ccc(Cn2cc(-c3noc(C(F)(F)F)n3)cn2)cc1 [compound 311]
- Test A disease control rating ([1]; test suspension 50 ppm): 0%
- Test B disease control rating ([2]; test suspension 250 ppm): 0* %
- Test C disease control rating ([3]; test suspension 50 ppm): 0%

Structure (SMILES): CN(C)C(=O)c1coc(Cc2ccc(-c3noc(C(F)(F)F)n3)cc2)n1 [compound 315]
- Test A disease control rating [1, 4]: 100%
- Test B disease control rating ([2]; test suspension 250 ppm): 97* %
- Test C disease control rating ([3]; test suspension 10 ppm): 99%

Structure (SMILES): CN(C)C(=O)C1=NOC(COc2cccc(-c3noc(C(F)(F)F)n3)c2)C1 (stereo not drawn) [compound 502]
- pest or weed control at 250 ppm ([1]; Phakopsora pachyrhizi, 216 h, 250 ppm test suspension, 100 = 100% disease control, 0 = no control): 100%
- pest or weed control at 250 ppm [2, 5]: 62%
- pest or weed control at 250 ppm ([3]; Puccinia recondita, 168 h, 250 ppm test suspension, 100 = 100% disease control, 0 = no control): 100%

Structure (SMILES): FC(F)(F)c1nc(-c2ccc(Cn3cccn3)cc2)no1 [compound 162]
- Test A disease control rating ([1]; test suspension 250 ppm): 100%
- Test B disease control rating ([2]; test suspension 250 ppm): 0%
- Test C disease control rating ([3]; test suspension 250 ppm): 100%
